# Assay results: US5710012A, “Salt of 6-carboxy-3-methylbenzothiazolone hydrazone hydrate in colorimetric determination of hydrogen peroxide” (ActiMed Laboratories, Inc., priority 1994, dated 1998)
# Where a name gives a salt, the structure may show the parent alone. Read-outs that look alike come from different tables or passages of the source.
# Legend:
# [1] = cited from earlier work
# [2] = Relative Molar Extinction Coefficients (absorbance of dye formed with N-ethylanilinopropanamine, POD and H2O2); assay type: physicochemical; settings: pH 6.5 phosphate buffer, same molar concentration, coupled with N-ethylanilinopropanamine hydrochloride
# Procedure: The relative absorbance of MBTH and sodium carboxy MBTH, an illustrative soluble hydrazone compound, was measured and compared. Since each compound was measured at the same molar concentration, the molar extinction was proportional to the […].
# Each sample contained the following:
# 1 mL phosphate buffer, 0.035M, pH 6.5
# 10 μL R-MBTH solution, 10 mM, where R=H or COONa
# 100 μL N-ethylanilinopropanamine hydrochloride, 10 mM
# 10 μL POD solution, ~120 IU/mL
# A 1-mL aliquot of each solution was transferred to a cuvette and diluted with an addition 2 mL of phosphate buffer solution.
# [3] = Heat Stability on coated polyester fabric at 120° C.; assay type: physicochemical; settings: for Density: 120° C., absorbance at 310 nm
# Procedure: In order to evaluate the heat stability of sodium carboxy MBTH, 38 mg. of either MBTH.HCl or NaCMBTH was added to 1.2 mL water to dissolve. Then, 0.75 mL of this solution was added to 21 mg Hydrisel SX 660, a commercial surfactant and […] 0.1% ACP polymer (ISP Technologies), prepared in 70% isopropanol solution. Each solution was coated onto a 4-inch wide polyester fabric in a thin layer and dried at 40° C. for fifteen minutes. The coated fabric was sealed in an airtight foil bag and stored at 4° C.
# Small samples (2 cm×5 cm) of each coated fabric were placed into a 120° C. oven and removed at appropriate intervals. The heat-stressed fabric samples were assayed spectrophotometrically.
# The fabric samples were placed into a tared test tube and weighed. Ten mL of 20 mM phosphate buffer, pH 7.0, was added. The tubes were capped and agitated for ten minutes at room temperature. Absorbance at 310 nm was read for each sample and the values were compared against a standard curve.
# [4] = Solubility Comparison in water; assay type: physicochemical; settings: for Water added: to dissolve 100 mg completely
# Procedure: (§1) The solubility of MBTH.HCl was compared with that of NaCMBTH. One hundred mg samples of each of MBTH.HCl (Aldrich) and NaCMBTH were placed into test tubes. Water was added in 50 μ-L aliquots until the sample completely dissolved.
# [5] = Solubility Comparison in pH 7 buffer; assay type: physicochemical; settings: for solubility: 0.1m phosphate buffer, aqueous buffer, pH 7 buffer (phosphate, 0.1M); for Water added: to dissolve 100 mg completely, pH 7 buffer (phosphate, 0.1M) instead of water
# Procedure: as §1
# An identical experiment was performed using pH 7 buffer (phosphate, 0.1M) instead of water.
structure (smiles),measurement,setting,value
Cn1c(=NNS(=O)(=O)O)sc2ccccc21 [3-methyl-2-sulfonyl-benzothiazolononhydrazone],solubility in water compared with MBTH,"[1]; U.S. Pat. No. 4,101,381",much poorer solubility in water than MBTH
"Cn1c(=NN)sc2cc(C(=O)O)ccc21 [NaCMBTH, 3-methylbenzothiazolone-2-hydrazone-6-carboxylic acid, sodium salt]",Absorbance at 600 nm,[2],0.2115 absorbance units
same,Density,[3]; time 0,75.4 mg/m^2
same,Density,[3]; time 4 (hours),50.4 mg/m^2
same,Density,[3]; time 6 (hours),51.2 mg/m^2
same,Density,[3]; time 23 (hours),50.3 mg/m^2
same,heat stability,[3]; after 23 hours at 120° C.,retains most of its activity
same,heat stability,[3]; after six hours at 120° C.,still viable
same,solubility,[4],87 mg/mL
same,Water added,[4],1150 µL
same,solubility,[5],174 mg/mL
same,Water added,[5],575 µL
"Cn1c(=NN)sc2ccccc21 [MBTH.HCl, 3-methyl benzothiazolone-2-hydrazone HCL]",Absorbance at 600 nm,[2],0.1513 absorbance units
same,Density,[3]; time 0,114.7 mg/m^2
same,Density,[3]; time 4 (hours),10.2 mg/m^2
same,heat stability,[3]; after only two hours at 120° C.,effectively decomposed
same,solubility,[4],34 mg/mL
same,Water added,[4],2900 µL
same,solubility,[5],< 10 mg/mL
same,Water added,[5],> 9600 µL
same,water solubility of the dye formed in the color reactions,[1],relatively poor water solubility
same,heat stability,"[1]; dry form, 60° C., as noted in U.S. Pat. No. 4,101,381",insufficiently stable
same,usable pH (autoxidative color reaction otherwise),"[1]; pH, absence of hydrogen peroxide",below 7
